Experiment: Polymorphic stability on storage at 40° C./75% relative humidity
Type: physicochemical
Settings: kept at a temperature of 40° C.±2° C. and a relative humidity of 75%±5% for 6 months
Description: All XRPD analyses were carried out on a Bruker D8 Advance instrument, equipped with a copper radiation source with a wavelength of 1.54 Å.
All DSC analyses were carried out on a Perkin Elmer instrument, over a temperature range of 25° C. to 250° C., at a heating rate of 10° C./min, using a closed aluminium pan with a pinhole as crucible.

Compound: O=C(CCCCCCC(=O)Nc1ccccc1)NO [crystalline form VI, N-hydroxy-N′-phenyl-octanediamide]
- polymorphic stability (conversion over time to other polymorphs): very stable polymorphically with no conversion over time to other polymorphs

From patent US8754129B2, “Crystalline vorinostat form VI” (Generics [UK] Limited, priority 2008, dated 2014)
